Data: patent US20180051017A1, “AGENT FOR TREATMENT OF SCHIZOPHRENIA” (Sumitomo Dainippon Pharma Co., Ltd., priority 2002, published 2018)
Structures can show the parent of a compound that is named as a salt.

Test system: patients with schizophrenia in the acute exacerbation phase
Assay: First stage phase II clinical trial: safety (adverse events, serious adverse events, side effects, ECG, laboratory tests)
Assay type: in vivo, human
Procedure: According to the procedures as shown in Table 1 as described below, the placebo-controlled double blind experiment was done on 149 patients with schizophrenia in the acute exacerbation phase at 15 facilities in USA. The efficacy and safeness were studied when SM-13496 at a dose of 40 mg or 120 mg, or a placebo was orally administered once a day for 6 weeks after placebo washout.

[1] = 40 mg orally once a day for 6 weeks, 50 subjects

O=C1[C@@H]2[C@@H]3CC[C@@H](C3)[C@@H]2C(=O)N1C[C@@H]1CCCC[C@H]1CN1CCN(c2nsc3ccccc23)CC1 [SM-13496, (1R,2S,3R,4S)-N-[(1R,2R)-2-[4-(1,2-benzoisothiazol-3-yl)-1-piperazinyl-methyl]-1-cyclohexylmethyl]-2,3-bicyclo[2.2.1]heptanedicarboximide hydrochloride]
Relationship of the serious adverse events to the tested medicament (40 mg and 120 mg groups): denied | Body weight gain, bulimia, impotence, erectile dysfunction or convulsion (40 mg or 120 mg, 6 weeks): not observed | Change in 12-lead electrocardiogram (40 mg or 120 mg, 6 weeks): no clinically significant change | Number of subjects showing adverse events (%) [1]: 40 (80) number of subjects (%) | Number of subjects showing serious adverse events (%) [1]: 3 (6) number of subjects (%) | Number of subjects who drop out from the trial due to adverse events (%) [1]: 6 (12) number of subjects (%) | Ratio of the patients having an abnormal change in laboratory values among the groups (40 mg, 120 mg and placebo groups): no significant difference | Occurrence of adverse event: Akathisia (40 mg, 6 weeks, 50 subjects): 4 (8) number of subjects (%) | Occurrence of adverse event: Digestive disturbance (40 mg, 6 weeks, 50 subjects): 4 (8) number of subjects (%) | Occurrence of adverse event: Drowsiness (40 mg, 6 weeks, 50 subjects): 4 (8) number of subjects (%) | Occurrence of adverse event: Exacerbation of schizophrenia (40 mg, 6 weeks, 50 subjects): 2 (4) number of subjects (%) | Occurrence of adverse event: Free-floating vertigo (excluding rotatory vertigo) (40 mg, 6 weeks, 50 subjects): 6 (12) number of subjects (%) | Occurrence of adverse event: Headache (40 mg, 6 weeks, 50 subjects): 8 (16) number of subjects (%) | Occurrence of adverse event: Nausea (40 mg, 6 weeks, 50 subjects): 5 (10) number of subjects (%) | Occurrence of adverse event: Suppression (40 mg, 6 weeks, 50 subjects): 9 (18) number of subjects (%) | Occurrence of serious adverse event: Exacerbation of paranoia (40 mg, 6 weeks, 50 subjects): 1 (2) number of subjects (%) | Occurrence of serious adverse event: Exacerbation of schizophrenia (40 mg, 6 weeks, 50 subjects): 1 (2) number of subjects (%) | Occurrence of serious adverse event: Paranoid schizophrenia (40 mg, 6 weeks, 50 subjects): 0 (0) number of subjects (%) | Occurrence of serious adverse event: Psychosis aggravated (40 mg, 6 weeks, 50 subjects): 1 (2) number of subjects (%) | Occurrence of side effects (%) (40 mg, 6 weeks, 50 subjects): 33 (66) number of subjects (%) | Serious adverse events: Total (%) (40 mg, 6 weeks, 50 subjects): 3 (6) number of subjects (%) | Side effect: Abdominal pain (Gastroenteric disturbance) (40 mg, 6 weeks, 50 subjects): 0 (0) number of subjects (%) | Side effect: Abnormal electrocardiogram (Laboratory assay) (40 mg, 6 weeks, 50 subjects): 0 (0) number of subjects (%) | Side effect: Abnormal liver function tests (Laboratory assay) (40 mg, 6 weeks, 50 subjects): 0 (0) number of subjects (%) | Side effect: Agitation (Mental disturbance) (40 mg, 6 weeks, 50 subjects): 0 (0) number of subjects (%) | Side effect: Agitation aggravated (Mental disturbance) (40 mg, 6 weeks, 50 subjects): 0 (0) number of subjects (%) | Side effect: Akathisia (Nervous system disorder) (40 mg, 6 weeks, 50 subjects): 4 (8) number of subjects (%) | Side effect: Akathisia aggravated (Nervous system disorder) (40 mg, 6 weeks, 50 subjects): 1 (2) number of subjects (%) | Side effect: Anarthria (Nervous system disorder) (40 mg, 6 weeks, 50 subjects): 0 (0) number of subjects (%) | Side effect: Anorexia (Metabolic disturbances and nutritional disturbance) (40 mg, 6 weeks, 50 subjects): 1 (2) number of subjects (%) | Side effect: Anxiety aggravated (Mental disturbance) (40 mg, 6 weeks, 50 subjects): 1 (2) number of subjects (%) | Side effect: Articular rigidity (Musculoskeletal system and connective tissue disorder) (40 mg, 6 weeks, 50 subjects): 1 (2) number of subjects (%) | Side effect: Blurred vision (Ocular disturbance) (40 mg, 6 weeks, 50 subjects): 1 (2) number of subjects (%) | Side effect: Breathing difficulty (Disturbance in respiratory organ, chest and mediastinum) (40 mg, 6 weeks, 50 subjects): 0 (0) number of subjects (%) | Side effect: Cervical rigidity (Musculoskeletal system and connective tissue disorder) (40 mg, 6 weeks, 50 subjects): 1 (2) number of subjects (%) | Side effect: Cogwheel rigidity (Nervous system disorder) (40 mg, 6 weeks, 50 subjects): 0 (0) number of subjects (%) | Side effect: Constipation (Gastroenteric disturbance) (40 mg, 6 weeks, 50 subjects): 2 (4) number of subjects (%) | Side effect: Decrease in appetite (Metabolic disturbances and nutritional disturbance) (40 mg, 6 weeks, 50 subjects): 1 (2) number of subjects (%) | Side effect: Diarrhea (Gastroenteric disturbance) (40 mg, 6 weeks, 50 subjects): 3 (6) number of subjects (%) | Side effect: Drowsiness (Nervous system disorder) (40 mg, 6 weeks, 50 subjects): 4 (8) number of subjects (%) | Side effect: Dry eye (Ocular disturbance) (40 mg, 6 weeks, 50 subjects): 0 (0) number of subjects (%) | Side effect: Dry mouth (Gastroenteric disturbance) (40 mg, 6 weeks, 50 subjects): 0 (0) number of subjects (%) | Side effect: Dyspepsia (Gastroenteric disturbance) (40 mg, 6 weeks, 50 subjects): 3 (6) number of subjects (%) | Side effect: Dystonic reaction (Nervous system disorder) (40 mg, 6 weeks, 50 subjects): 1 (2) number of subjects (%) | Side effect: Exacerbation of insomnia (Mental disturbance) (40 mg, 6 weeks, 50 subjects): 0 (0) number of subjects (%) | Side effect: External otitis (Infection and parasitosis) (40 mg, 6 weeks, 50 subjects): 1 (2) number of subjects (%) | Side effect: Extrapyramidal disease (Nervous system disorder) (40 mg, 6 weeks, 50 subjects): 1 (2) number of subjects (%) | Side effect: Fatigue (Total disability and local condition) (40 mg, 6 weeks, 50 subjects): 3 (6) number of subjects (%) | Side effect: Fatigue aggravated (Total disability and local condition) (40 mg, 6 weeks, 50 subjects): 1 (2) number of subjects (%) | Side effect: Flatulence (Gastroenteric disturbance) (40 mg, 6 weeks, 50 subjects): 1 (2) number of subjects (%) | Side effect: Flushing (Vascular diseases) (40 mg, 6 weeks, 50 subjects): 0 (0) number of subjects (%) | Side effect: Free-floating vertigo (excluding rotatory vertigo) (Nervous system disorder) (40 mg, 6 weeks, 50 subjects): 5 (10) number of subjects (%) | Side effect: Frequent urination (Renal Injury and urinary disorder) (40 mg, 6 weeks, 50 subjects): 0 (0) number of subjects (%) | Side effect: Glossoplegia (Nervous system disorder) (40 mg, 6 weeks, 50 subjects): 0 (0) number of subjects (%) | Side effect: Headache (Nervous system disorder) (40 mg, 6 weeks, 50 subjects): 6 (12) number of subjects (%) | Side effect: Heavy feeling (Musculoskeletal system and connective tissue disorder) (40 mg, 6 weeks, 50 subjects): 1 (2) number of subjects (%) | Side effect: Hot flashes (Vascular diseases) (40 mg, 6 weeks, 50 subjects): 0 (0) number of subjects (%) | Side effect: Hot sensation (Total disability and local condition) (40 mg, 6 weeks, 50 subjects): 0 (0) number of subjects (%) | Side effect: Increase in creatine phosphokinase level in the blood (Laboratory assay) (40 mg, 6 weeks, 50 subjects): 1 (2) number of subjects (%) | Side effect: Increase in prolactin level in the blood (Laboratory assay) (40 mg, 6 weeks, 50 subjects): 1 (2) number of subjects (%) | Side effect: Increase in total protein (Laboratory assay) (40 mg, 6 weeks, 50 subjects): 1 (2) number of subjects (%) | Side effect: Insomnia (Mental disturbance) (40 mg, 6 weeks, 50 subjects): 1 (2) number of subjects (%) | Side effect: Laryngopharynx pain (Disturbance in respiratory organ, chest and mediastinum) (40 mg, 6 weeks, 50 subjects): 1 (2) number of subjects (%) | Side effect: Loose stools (Gastroenteric disturbance) (40 mg, 6 weeks, 50 subjects): 0 (0) number of subjects (%) | Side effect: Melalgia (Musculoskeletal system and connective tissue disorder) (40 mg, 6 weeks, 50 subjects): 0 (0) number of subjects (%) | Side effect: Muscle stiffness (Musculoskeletal system and connective tissue disorder) (40 mg, 6 weeks, 50 subjects): 2 (4) number of subjects (%) | Side effect: Myalgic pain (Musculoskeletal system and connective tissue disorder) (40 mg, 6 weeks, 50 subjects): 0 (0) number of subjects (%) | Side effect: Nausea (Gastroenteric disturbance) (40 mg, 6 weeks, 50 subjects): 4 (8) number of subjects (%) | Side effect: Nightmare (Mental disturbance) (40 mg, 6 weeks, 50 subjects): 0 (0) number of subjects (%) | Side effect: Palpitation (Heart problems) (40 mg, 6 weeks, 50 subjects): 0 (0) number of subjects (%) | Side effect: Parotiditis (Infection and parasitosis) (40 mg, 6 weeks, 50 subjects): 0 (0) number of subjects (%) | Side effect: Polyuria (Renal Injury and urinary disorder) (40 mg, 6 weeks, 50 subjects): 0 (0) number of subjects (%) | Side effect: Pruritus (Disturbance in Skin and Hypodermis) (40 mg, 6 weeks, 50 subjects): 0 (0) number of subjects (%) | Side effect: Psychosis aggravated (Mental disturbance) (40 mg, 6 weeks, 50 subjects): 0 (0) number of subjects (%) | Side effect: Restlessness (Mental disturbance) (40 mg, 6 weeks, 50 subjects): 1 (2) number of subjects (%) | Side effect: Salivary hypersecretion (Gastroenteric disturbance) (40 mg, 6 weeks, 50 subjects): 0 (0) number of subjects (%) | Side effect: Sinus tachycardia (Heart problems) (40 mg, 6 weeks, 50 subjects): 0 (0) number of subjects (%) | Side effect: Sleepiness (Total disability and local condition) (40 mg, 6 weeks, 50 subjects): 1 (2) number of subjects (%) | Side effect: Suppression (Nervous system disorder) (40 mg, 6 weeks, 50 subjects): 9 (18) number of subjects (%) | Side effect: Tinea pedis (Infection and parasitosis) (40 mg, 6 weeks, 50 subjects): 0 (0) number of subjects (%) | Side effect: Tongue disturbance (Gastroenteric disturbance) (40 mg, 6 weeks, 50 subjects): 1 (2) number of subjects (%) | Side effect: Tremor (Nervous system disorder) (40 mg, 6 weeks, 50 subjects): 3 (6) number of subjects (%) | Side effect: Trismus (Nervous system disorder) (40 mg, 6 weeks, 50 subjects): 0 (0) number of subjects (%) | Side effect: Urinary tract infection (Infection and parasitosis) (40 mg, 6 weeks, 50 subjects): 1 (2) number of subjects (%) | Side effect: Vomiting (Gastroenteric disturbance) (40 mg, 6 weeks, 50 subjects): 2 (4) number of subjects (%) | Side effect: Weight loss (Laboratory assay) (40 mg, 6 weeks, 50 subjects): 1 (2) number of subjects (%) | Akathisia (adverse event) (40 mg-treated group): 8% | Exacerbation of schizophrenia (adverse event) (40 mg-treated group): 4% | Ratio of the subjects showing suppression (40 mg-treated group): 18% | Serious adverse events (40 mg-treated group): 3 cases | Number of subjects showing adverse events (%) (120 mg orally once a day for 6 weeks, 49 subjects): 38 (78) number of subjects (%)
